From US6653478B2, “Substituted benzimidazol-2-ones as vasopressin receptor antagonists and neuropeptide Y modulators” (Ortho-McNeil Pharmaceutical, Inc., priority 2000, dated 2003) come the findings set out here.

As usually defined, the IC50 is the midpoint of a concentration-inhibition curve. A high value points to weaker potency in that assay.

What all share (set-up): expressed in transfected cells; host or cells: HEK-293 (membranes)
One assay deals with human V1a receptor (Homo sapiens, UniProt P37288). As to the kind of experiment: V1a binding assay (3H-AVP displacement, HEK-293 membranes). As to conditions: for inhibition at 1 µM: 1.0 μM compound, read-out: V1a@1.0, % Inh. On the procedure: (§1) V1a, V1b or V2 Binding Assay
(§2) Receptor binding studies were performed using recombinant human V1a, V1b or V2 receptors. Cellular membranes were harvested from HEK-293 cells transfected to express either the V1a, V1b or V2 receptors. Compounds were evaluated for their ability to displace ^3H-arginine vasopressin (^3H-AVP; specific activity 40-87 Ci/mmol; NEN Life Sciences, Boston, Mass.). Compounds were solubilized in dimethylsulfoxide (DMSO) and diluted to working concentration of 10% DMSO with assay buffer (50 mM Tris, 5 mM MgCl2, 0.1% BSA, pH 7.5). Assay buffer was supplemented with several protease inhibitors (1 mM Pefabloc, 5 μg/ml aprotinin/leupeptin/pepstatin A, 50 μg/ml bacitracin; Sigma Chemical, St. Louis, Mo.). Non-specific binding was determined using 1.25 μM arginine vasopressin (AVP; Peninsula Labs, Belmont, Calif.). Assay reagents and test compounds were added to 96-well round bottom polypropylene plates (145 μl buffer, 5 μl compound in 10% DMSO, 25 μl buffer containing 10,000 cpm tracer, 25 μl cell membrane). After incubation for 1 hour at room temperature, the well contents were aspirated across a Unifilter GF/C plate (Packard Instrument, Downers Grove, Ill.) which had been presoaked in 0.3% polyethyleneimine to prevent peptide sticking. The wells were washed repeatedly with cold saline containing 0.05% Tween 20. The plate was then dried and 25 μl Microscint-20 cocktail (Packard Instruments) added to each well. The plates were sealed and counted on a TopCount scintillation counter (Packard Instruments) using quench correction.

A further assay addresses T1, human V1b receptor (Homo sapiens, UniProt P47901).
T1 sequence (P47901 1-424): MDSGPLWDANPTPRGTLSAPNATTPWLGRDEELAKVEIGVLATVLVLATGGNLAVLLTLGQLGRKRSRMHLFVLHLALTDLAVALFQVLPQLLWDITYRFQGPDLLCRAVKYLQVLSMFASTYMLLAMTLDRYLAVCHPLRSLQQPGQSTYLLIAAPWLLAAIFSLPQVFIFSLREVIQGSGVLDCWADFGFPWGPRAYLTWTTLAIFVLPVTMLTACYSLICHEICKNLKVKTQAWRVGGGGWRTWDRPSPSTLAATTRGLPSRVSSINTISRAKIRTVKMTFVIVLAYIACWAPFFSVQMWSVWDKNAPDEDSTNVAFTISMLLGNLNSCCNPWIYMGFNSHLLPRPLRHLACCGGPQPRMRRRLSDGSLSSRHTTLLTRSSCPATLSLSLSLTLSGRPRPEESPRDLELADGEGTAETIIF
As to the kind of experiment: V1b binding assay (3H-AVP displacement, HEK-293 membranes). Conditions: 1.0 μM compound; read-out: V1b@1.0, % Inh. On the procedure:
as §1, §2

Another assay concerns the target human V2 receptor (Homo sapiens, UniProt P30518). As to the kind of experiment: V2 binding assay (3H-AVP displacement, HEK-293 membranes). As to conditions: 1.0 μM compound; read-out: V2@1.0, % Inh. On the procedure: as §1, §2

Chain of human V1a receptor (P37288 whole entry): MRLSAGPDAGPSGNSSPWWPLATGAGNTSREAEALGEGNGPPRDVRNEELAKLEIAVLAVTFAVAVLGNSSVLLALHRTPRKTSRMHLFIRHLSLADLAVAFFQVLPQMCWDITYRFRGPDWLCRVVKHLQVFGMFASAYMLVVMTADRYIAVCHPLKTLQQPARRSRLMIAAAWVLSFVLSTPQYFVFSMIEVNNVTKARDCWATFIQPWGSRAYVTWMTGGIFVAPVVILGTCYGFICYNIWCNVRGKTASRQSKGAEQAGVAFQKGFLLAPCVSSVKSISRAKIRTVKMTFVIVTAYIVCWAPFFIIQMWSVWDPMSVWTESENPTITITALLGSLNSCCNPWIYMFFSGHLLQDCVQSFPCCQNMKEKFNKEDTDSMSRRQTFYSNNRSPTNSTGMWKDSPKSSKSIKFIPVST
Chain of human V2 receptor (P30518 whole entry): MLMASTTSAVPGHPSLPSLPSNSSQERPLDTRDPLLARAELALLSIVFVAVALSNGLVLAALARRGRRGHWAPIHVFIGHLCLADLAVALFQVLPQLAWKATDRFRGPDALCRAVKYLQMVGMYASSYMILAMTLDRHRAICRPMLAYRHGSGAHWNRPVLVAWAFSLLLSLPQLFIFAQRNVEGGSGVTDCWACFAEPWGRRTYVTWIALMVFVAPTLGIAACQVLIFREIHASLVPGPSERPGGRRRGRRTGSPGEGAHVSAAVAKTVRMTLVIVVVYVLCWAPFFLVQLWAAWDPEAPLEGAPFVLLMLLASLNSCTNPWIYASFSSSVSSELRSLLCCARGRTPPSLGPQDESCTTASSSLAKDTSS

Regarding `CC(NC(=S)N1CCC(n2c(=O)n(CCCN3CCCCC3)c3ccccc32)CC1)c1ccc(F)cc1` (stereo not shown) [Compound 137], on human V1a receptor, the IC50 was 91 nM. Besides, the inhibition at 1 µM worked out at 41% on human V1b receptor and 0% at human V2 receptor.

In the case of `CC(C)c1ccccc1NC(=O)N1CCC(n2c(=O)n(CCCN3CCCCC3)c3ccccc32)CC1` [Compound 138], the values for the inhibition at 1 µM at human V1a receptor, at human V1b receptor and on human V2 receptor were 58%, 21% and 0%, respectively.

For the compound `O=c1n(CCCN2CCC2)c2ccccc2n1C1CCN(C(=S)NC(c2ccccc2)c2ccccc2)CC1` [Compound 140], the inhibition at 1 µM at human V1a receptor came out at 59%; on human V1b receptor, 28%; at human V2 receptor, 0%.

On to `O=c1n(CCCN2CCCCCC2)c2ccccc2n1C1CCN(C(=S)NC(c2ccccc2)c2ccccc2)CC1` [Compound 141], for which the inhibition at 1 µM on human V1a receptor turned out to be 83%; on human V1b receptor, 29%; on human V2 receptor it was 0%.

For `O=c1n(CCCN2CCCCCCC2)c2ccccc2n1C1CCN(C(=S)NC(c2ccccc2)c2ccccc2)CC1` [Compound 142], on human V1a receptor, the IC50 was 68 nM. Further, the values for the inhibition at 1 µM on human V1b receptor and at human V2 receptor were 56% and 4%, respectively.

`O=c1n(CCCN2CC=CCC2)c2ccccc2n1C1CCN(C(=S)NC(c2ccccc2)c2ccccc2)CC1` [Compound 143] had an IC50 at human V1a receptor of 41 nM. The inhibition at 1 µM came to 65% at human V1b receptor and 8% on human V2 receptor.

`CN1CCN=C1NCCCn1c(=O)n(C2CCN(C(=S)NC(c3ccccc3)c3ccccc3)CC2)c2ccccc21` [Compound 144] had a half-inhibitory concentration (IC50) on human V1a receptor of 395 nM. Besides, the inhibition at 1 µM came out at 31% at human V1b receptor and 2% on human V2 receptor.

As for `CC(CN1CCCCC1)Cn1c(=O)n(C2CCN(C(=S)NC(c3ccccc3)c3ccccc3)CC2)c2ccccc21` (stereo not shown) [Compound 146], the inhibition at 0.5 µM at human V1a receptor (0.5 μM compound, read-out: V1a % Inh @0.5) came out at 15%. In addition, the inhibition at 1 µM is 85% on human V1a receptor, 33% on human V1b receptor and 0% on human V2 receptor.

In turn, `CC(CN1CCCCC1)Cn1c(=O)n(C2CCN(C(=O)NC(c3ccccc3)c3ccccc3)CC2)c2ccccc21` (stereo not shown) [Compound 147] showed an IC50 on human V1a receptor of 440 nM. Also, the inhibition at 1 µM on human V1b receptor was 27%; on human V2 receptor it was 1%.

The compound `CC(CN1CCCC1)Cn1c(=O)n(C2CCN(C(=S)NC(c3ccccc3)c3ccccc3)CC2)c2ccccc21` (stereo not shown) [Compound 148] came in with a 50% inhibitory concentration (IC50) on human V1a receptor of 53 nM. The figures for the inhibition at 1 µM at human V1b receptor and on human V2 receptor were 40% and 1%, respectively.

At human V1a receptor, `CC(CN1CCCC1)Cn1c(=O)n(C2CCN(C(=O)NC(c3ccccc3)c3ccccc3)CC2)c2ccccc21` (stereo not shown) [Compound 149] displayed a half-inhibitory concentration (IC50) of 42 nM. The inhibition at 1 µM on human V1b receptor amounted to 44%; at human V2 receptor it was 0%.

On to `O=C(Cc1ccc(N2CCCC2)cc1)n1c(=O)n(C2CCN(C(=S)NC(c3ccccc3)c3ccccc3)CC2)c2ccccc21` [Compound 150], for which the inhibition at 1 µM on human V1a receptor was found to be 38%; at human V1b receptor, 16%; on human V2 receptor, 0%.

With `Cc1ccccc1CNC(=O)N1CCC(n2c(=O)n(CCCN3CCCCC3)c3ccccc32)CC1` [Compound 151], the inhibition at 1 µM at human V1a receptor stood at 62%; at human V1b receptor, 37%; at human V2 receptor, 0%.

With `O=C(NC1c2ccccc2-c2ccccc21)N1CCC(n2c(=O)n(CCCN3CCCCC3)c3ccccc32)CC1` [Compound 152], the IC50 on human V1a receptor worked out at 230 nM. Further, the values for the inhibition at 1 µM on human V1b receptor and at human V2 receptor were 38% and 2%, respectively.

Consider `O=c1n(CCCN2CCCCC2)c2ccccc2n1C1CCN(C(=S)Nc2ccc(N3CCOCC3)cc2)CC1` [Compound 153], for which the inhibition at 1 µM on human V1a receptor, at human V1b receptor and on human V2 receptor was 0% throughout.

In the case of `O=c1n(CCCN2CCCCC2)c2ccccc2n1C1CCN(C(=S)Nc2cccnc2)CC1` [Compound 154], the inhibition at 1 µM at human V1a receptor turned out to be 7%; on human V1b receptor, 0%; at human V2 receptor it was 3%.

As for `O=c1n(CCCN2CCCCC2)c2ccccc2n1C1CCN(C(=S)Nc2ccc3c(c2)CCC3)CC1` [Compound 155], the inhibition at 1 µM turned out to be 28% at human V1a receptor, 10% on human V1b receptor and 5% on human V2 receptor.

At human V1a receptor, `O=c1n(CCCN2CCCCC2)c2ccccc2n1C1CCN(C(=S)Nc2ccc3c(c2)OCO3)CC1` [Compound 156] came in with an IC50 of 450 nM. Further, the inhibition at 1 µM at human V1b receptor is 22%; on human V2 receptor, 3%.

Take `O=C1OCCC1NC(=S)N1CCC(n2c(=O)n(CCCN3CCCCC3)c3ccccc32)CC1` (stereo not shown) [Compound 157]: the inhibition at 1 µM at human V1a receptor was 5%; at human V1b receptor, 0%; on human V2 receptor, 6%.

For the compound `O=c1n(CCCN2CCCCC2)c2ccccc2n1C1CCN(C(=S)NCc2ccco2)CC1` [Compound 158], the inhibition at 1 µM on human V1a receptor is 55%; on human V1b receptor it was 18%; at human V2 receptor, 42%.

Consider `O=c1n(CCCN2CCCCC2)c2ccccc2n1C1CCN(C(=S)NCC2CCCO2)CC1` (stereo not shown) [Compound 159], for which the results for the inhibition at 1 µM on human V1a receptor, on human V1b receptor and on human V2 receptor were 2%, 10% and 0%, respectively.

`O=c1n(CCCN2CCCCC2)c2ccccc2n1C1CCN(C(=S)NCc2cccs2)CC1` [Compound 160] showed an IC50 at human V1a receptor of 230 nM. Further, the inhibition at 1 µM worked out at 27% on human V1b receptor and 0% on human V2 receptor.

Regarding `O=c1n(CCCN2CCCCC2)c2ccccc2n1C1CCN(C(=S)Nc2ccccc2-c2ccccc2)CC1` [Compound 161], the IC50 at human V1a receptor is 108 nM. For the same compound, the inhibition at 1 µM at human V1b receptor turned out to be 40%; on human V2 receptor, 2%.

For the compound `O=C(Nc1ccccc1-c1ccccc1)N1CCC(n2c(=O)n(CCCN3CCCCC3)c3ccccc32)CC1` [Compound 162], the IC50 at human V1a receptor worked out at 117 nM. Further, the figures for the inhibition at 1 µM on human V1b receptor and on human V2 receptor were 26% and 4%, respectively.

Regarding `O=c1n(CCCN2CCCCC2)c2ccccc2n1C1CCN(C(=S)NCc2ccc3c(c2)OCO3)CC1` [Compound 163], the IC50 on human V1a receptor is 150 nM. Besides, the inhibition at 1 µM is 27% at human V1b receptor and 0% at human V2 receptor.

Take `O=c1n(CCCN2CCCCC2)c2ccccc2n1C1CCN(C(=S)NCc2ccc(Cl)cc2Cl)CC1` [Compound 164]: at human V1a receptor, the IC50 came to 86 nM. For the same compound, the inhibition at 1 µM was 35% on human V1b receptor and 5% on human V2 receptor.

Consider `CN(C)c1ccc(CNC(=S)N2CCC(n3c(=O)n(CCCN4CCCCC4)c4ccccc43)CC2)cc1` [Compound 165], for which the inhibition at 1 µM came to 40% on human V1a receptor, 20% at human V1b receptor and 3% at human V2 receptor.

On to `CSC(=O)NC(=N)N1CCC(n2c(=O)n(CCCN3CCCCC3)c3ccccc32)CC1` [Compound 166], for which the inhibition at 1 µM stood at 5% on human V1a receptor, 16% on human V1b receptor and 19% at human V2 receptor.

As for `O=c1n(Cc2ccc(-c3csnn3)cc2)c2ccccc2n1C1CCN(C(=S)NC(c2ccccc2)c2ccccc2)CC1` [Compound 167], the inhibition at 1 µM was 12% on human V1a receptor, 1% at human V1b receptor and 8% at human V2 receptor.

For `O=c1n(CCCN2CCCCC2)c2ccccc2n1C1CCN(C(=S)NCc2cccnc2)CC1` [Compound 168], the values for the inhibition at 1 µM at human V1a receptor, on human V1b receptor and at human V2 receptor were 62%, 25% and 2%, respectively.
